Assay results: patent publication US20240408132A1, “HYPOHALOUS ACIDS FOR TREATING INFLAMMATORY DISEASES AND INHIBITING GROWTH OF MALIGNANCIES” (BT Manufacturing, LLC, priority 2020, published 2024)
Read-outs that look alike come from different tables or passages of the source.

How the values were obtained:
[1] = target: T1, IL-6 (Homo sapiens, UniProt P05231); assay: ELISA of IL-6 binding to anti-IL6 antibody after exposure to HOCl or HOBr; conditions: IL-6 exposed for 5 minutes at concentrations >2 ppm, halogen quenched before incubation
T1 sequence (P05231 30-212): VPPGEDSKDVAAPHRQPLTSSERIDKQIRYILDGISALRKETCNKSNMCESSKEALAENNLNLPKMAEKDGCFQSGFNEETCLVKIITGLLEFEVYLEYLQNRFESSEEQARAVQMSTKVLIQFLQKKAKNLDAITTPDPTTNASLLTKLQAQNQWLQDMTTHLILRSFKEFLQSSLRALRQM
Description: An ELISA assay (Fisher Scientific) was used to detect binding changes between IL6 and anti-IL6 antibody binding in the presence of HOCl or HOBr. Anti-human IL6 antibody was immobilized to a polystyrene 96 well plate as the capture antibody. IL-6 was exposed to various concentrations of HOCl or HOBr for 5 minutes. The active halogen was quenched before incubation with the coated plate wells. A second anti-human IL6 antibody was introduced to the coated wells and served as a detector to an enzyme-mediated chromophore indicator system.
The inhibition of IL-6 reactivity by exposure to HOCl is illustrated in FIG. 1.

[2] = test system: mouse; conditions: in vivo
Description: (§1) Experimental exposures of rodents were done according to OECD method 423 for acute oral toxicity assessment, OECD method 434 for acute dermal toxicity and OECD method 433 for acute inhalation.

[3] = target: T1, IL-6; assay: IL-6 bioassay (Promega), luminescence in receptor-expressing human cells; format: cell-based
Description: An IL-6 bioassay (Promega) was used to determine the effect of HOCl on IL-6 binding to human cells triggering a change in luminescence. IL-6 was incubated with various concentrations of HOCl and quenched, before addition to the receptor-expressing human cells.
Binding of the cytokine was measured by luminescence.

[4] = test system: human subjects; assay: Safety of human volunteers exposed to microaerosolized HOCl via inhalation; format: in vivo; conditions: dense microaerosols for 2-5 minutes, 400 episodes
Description: The safety of exposure of human subjects to microaerosolized pure stable HOCl via the respiratory route was evaluated.
Human volunteers were exposed to dense microaerosols of HOCl for periods of 2-5 minutes and submitted subjective reports of the outcomes of these experiences. Data on a total of 400 such episodes were collected under medical supervision.

[5] = test system: mouse; conditions: in vivo; remark: listed apart in the source
Description: as §1

SMILES | binding of IL-6 to the capture antibody [1] | Result/Behavior [2] | Result/Histopathology [2] | capacity of the cytokine to initiate transmembrane signaling ([3]; IL-6 exposed to HOCl) | luminescence of HOCl-treated IL-6 ([3]; all concentrations tested, IL-6 incubated with HOCl and quenched before addition to cells) | serious adverse effects [4] | minor complaints (nose irritation, slight impact on ease of deep breathing) ([4]; disappeared upon cessation of exposure) | Result/Behavior [5] | Result/Histopathology [5]
OBr [HOBr, Hypobromous acid] | undetectable | – | – | – | – | – | – | – | –
OCl [HOCl, hypochlorous acid] | no detectable binding | No change | No | complete inhibition | significantly reduced luminescence | No serious adverse effects | approximately 3% | No change | No
